# From paper PMC4999848 (Toxins, 2016)
# Several values for one entry are separate records, joined by “and”; a condition that tells them apart may be missing. Identical values can stand only once.
# How the values were obtained:
# [1] = test system: secreted digestive enzymes and fecal bacteria; assay: Deacetylation of 3/15ADON by secreted digestive enzymes and fecal bacteria (taken together); assay type: in vitro ADME; details: digestive enzymes plus fecal bacteria
# Method: The whole procedure involving fecal bacteria (including the use of fecal bacteria for the deacetylation assay) was performed in an anaerobic cabinet (Coy Laboratory Products, Grass Lake, MI, USA). Human fecal bacteria were isolated from three volunteers (men) working in the department, 40–50 years of age. Stools were collected fresh in a sterile container and were immediately introduced into the anaerobic cabinet. Feces samples were taken by pushing a cut-off disposal 1 mL pipette tip into the inner part of the stools. Samples were then mechanically suspended in 9 mL of degassed PBS^++. Homogenates were allowed to decant for ten minutes to eliminate insoluble matter, and supernatants (1 mL aliquots) were transferred to sterile Eppendorf tubes and used for deacetylation assay.
# Stock solutions of DON, 3ADON and 15ADON at 2 mg/mL were prepared in absolute ethanol and stored at −20 °C. For deacetylation assay, 3- or 15ADON were incubated with cells, explants, bacteria or digestive enzymes after being diluted in PBS^++ at a final concentration of 100 μM. PBS^++ solution containing only ethanol (at 1.5% final concentration) or DON (at 100 μM) were used in parallel as negative and positive control, respectively. […] In all cases, aliquots of the reaction solution were collected immediately (i.e., “time zero” sample) or after the indicated time period at 37 °C and analyzed by HPLC. […]
# [2] = design: method as in PMID 26343882; details: chickens, after oral or i.v treatment; cited from earlier work
# [3] = Deacetylation of 3/15ADON by liver S9 fraction; assay type: in vitro ADME, human
# Method: Stock solutions of DON, 3ADON and 15ADON at 2 mg/mL were prepared in absolute ethanol and stored at −20 °C. For deacetylation assay, 3- or 15ADON were incubated with cells, explants, bacteria or digestive enzymes after being diluted in PBS^++ at a final concentration of 100 μM. PBS^++ solution containing only ethanol (at 1.5% final concentration) or DON (at 100 μM) were used in parallel as negative and positive control, respectively. For cells and explants, deacetylation assay take place in 6-well plates, wells being filled with 2 mL of PBS^++ containing either ethanol, DON, 3- or 15ADON. For fecal bacteria and digestive enzyme assay, deacetylation assay was conducted in 2 mL Eppendorf tubes filled with 1.5 mL of PBS^++ containing either ethanol, DON, 3- or 15ADON. In vitro intestinal digestion by luminal enzymes was performed using porcine enzymes from Sigma-Aldrich and physiological conditions. Briefly, 3- or 15ADON were incubated with pepsin (at 1.6 mg/mL corresponding to 900 U/mL), trypsin (at 0.35 mg/mL corresponding to 6000 U/mL), pancreatic lipase (at 0.75 mg/mL corresponding to 18 U/mL) or pancreatin (at 1.23 mg/mL, lipase activity >10 U/mL, protease activity >100 U/mL, amylase activity >100 U/mL). Except for pepsin for which the digestion was conducted in HCl solution at 10 mM (pH 2.3), in vitro digestion was performed in PBS^++ (pH 7.4). Finally, deacetylation assay was also performed with commercial pooled S9 fractions from human liver, small intestine and kidneys as well as with pure recombinant human CES1 and CES2. S9 fractions and CES1/2 were used at 0.1 mg/mL and 5 μg/mL (corresponding to CES activity >20 U/mL), respectively. In all cases, aliquots of the reaction solution were collected immediately (i.e., “time zero” sample) or after the indicated time period at 37 °C and analyzed by HPLC. […] In all cases, the experiments were conducted in triplicate (n = 3).
# Deacetylation was monitoring both in term of disappearance of 3- or 15ADON and formation of DON. Measurement of DON, 3ADON and 15ADON concentrations was performed by reversed-phase HPLC using Waters Alliance System equipped with a Waters 2690 XE separation module and a Waters 996 photodiode array detector (Waters, Saint Quentin Falavier, France). The separation was achieved by mean of a LiChroCart column (125 mm × 4 mm) packed with 5 μm RP-18 Purospher gel (Merck, Darmstadt, Germany) and equipped with a LiChroCart precolumn (4 mm × 4 mm) packed with the same material (Merck). The precolumn and column were placed in room temperature. The elution procedure was carried out at 0.7 mL·min^−1 by a methanol–water solvent, using the following conditions: 40% methanol during 2 min followed by an increase in methanol to 50% at 2.1 min. The detection wavelength was set at 237 nm allowing the best signal/baseline ratio for simultaneous detection of the three DON forms in the incubation mediums. Under these conditions, DON and 3/15ADON were clearly separated, the retention time being around 2.7 min and 5.7 min, for DON and 3/15ADON, respectively (Figure 9). Quantification was based on calibration with the corresponding standard using Millinium Software (Waters, Saint Quentin Falavier, France).
# human fecal bacteria = details: 48 h incubation; cited from earlier work
# [4] = S9 Liver + Benzil 100 μM (Table 1)
# [5] = S9 Liver, without benzil (Table 1)
# [6] = S9 liver 0.1 mg/mL, 37 °C, substrate 100 μM (Table 3)
SMILES,Contribution to total deacetylation: intestinal luminal events [1] [%],Acetylated form in blood [2],"Disappearance of 3/15ADON, specific activity [3, 4] [pmol/min/mg]","Disappearance of 3/15ADON, specific activity [3, 5] [pmol/min/mg]","Disappearance of 3/15ADON, specific activity [3, 6]",% deacetylation (human fecal bacteria)
"CC(=O)OC[C@]12[C@H](O)C(=O)C(C)=C[C@H]1O[C@@H]1[C@H](O)C[C@@]2(C)[C@]12CO2 [15ADON, 15-acetyldeoxynivalenol]",34,traces of 15ADON are present in the blood,125 ± 15,166 ± 3.5,208 pmol/min/mg and 208 ± 41 pmol/min/mg,
"CC(=O)O[C@@H]1C[C@]2(C)[C@@]3(CO)[C@H](O)C(=O)C(C)=C[C@H]3O[C@H]1[C@@]21CO1 [3ADON, 3-acetyldeoxynivalenol]",16,,1583 ± 39,1729 ± 27,1791 pmol/min/mg and 1791 ± 29 pmol/min/mg,78% ± 30%
